For 24 compounds, IC50 results are on record in patent US12435087B2, “Modulators of DCN-1 and methods of use thereof” (Cellarity, Inc., priority 2023, dated 2025).

SMILES strings stand for the structures. Where two headings read alike, the source gives them in different places.

The target in this assay is DCN1 (DCUND1) protein PONY domain (Homo sapiens (Human), UniProt Q96GG9). Description: TR-FRET assay (binding to DCN-1, displacement of FAM-labeled probe). The gist of the method: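 Compounds read at 1, 5 and 24 h, 0.1% final DMSO, by TR-FRET between terbium-streptavidin on biotinylated DCN1 PONY domain (E. coli) and a FAM-tagged non-covalent inhibitor probe. Two setups used, 5 nM protein with 20 nM labelled probe, or 0.31 nM protein with 100 nM labelled plus 800 nM unlabelled probe; buffer had TritonX and 200 mM NaCl. % activity relative to high (with probe) and low (without probe) controls.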
DCN1 (DCUND1) protein PONY domain, sequence (Q96GG9 60-248): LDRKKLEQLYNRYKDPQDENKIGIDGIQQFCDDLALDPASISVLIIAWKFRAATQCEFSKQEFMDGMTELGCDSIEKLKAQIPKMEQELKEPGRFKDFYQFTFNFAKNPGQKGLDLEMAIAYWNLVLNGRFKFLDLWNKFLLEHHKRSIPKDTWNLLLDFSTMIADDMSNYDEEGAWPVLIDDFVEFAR
Background: In TR-FRET formats the signal depends on donor and acceptor labels being close together.

Setting [1] is: 24 hr after treatment with compound, read-out: TR FRET IC50 24 hr.
Where [2] appears, read: TR FRET IC50 1 hr (nM), 1 hr after treatment with compound.
Setting [3] is: read-out: TR FRET IC50 1 hr, 1 hr after treatment with compound.

Take `CCN1C(=O)[C@H](NC(=O)c2cccc(C(F)(F)F)c2)[C@@H](c2ccccc2NC(=O)CCl)c2c(C)nn(-c3ccccc3)c21` [Compound I-110, N-((4S,5R)-4-(2-(2-chloroacetamido)phenyl)-7-ethyl-3-methyl-6-oxo-1-phenyl-4,5,6,7-tetrahydro-1H-pyrazolo[3,4-b]pyridin-5-yl)-3-(trifluoromethyl)benzamide]: the IC50 under setting [1] fell in the range of 1000 to 3000 nM and the concentration for half-maximal inhibition (IC50) under setting [2] was in the range of 1000 to 3000 nM.

As to `C=C(CC(=O)NCc1cccc([C@H]2c3cnn(-c4ccccc4)c3N(CC)C(=O)[C@@H]2NC(=O)c2cccc(C(F)(F)F)c2)c1)C(=O)OC` [Compound I-109], the concentration for half-maximal inhibition (IC50) under setting [1] is 1000 to 3000 nM and the 50% inhibitory concentration (IC50) under setting [2] was in the range of 1000 to 3000 nM.

`CCN1C(=O)[C@H](NC(=O)c2cccc(C(F)(F)F)c2)[C@@H](c2cccc(CNC(=O)C3=C(C(=O)OC)CC3)c2)c2cnn(-c3ccccc3)c21` [Compound I-118]: the IC50 under setting [1] was 1000 to 3000 nM and the half-inhibitory concentration (IC50) under setting [2] was in the range of 1000 to 3000 nM.

For the compound `CCN1C(=O)[C@H](NC(=O)c2cccc(C(F)(F)F)c2)[C@@H](c2cccc(NC(=O)C#CCN3CCOCC3)c2)c2c(C)nn(-c3ccccc3)c21` (racemic) [Compound I-35], the half-inhibitory concentration (IC50) runs as follows: under setting [1], 1000 to 3000 nM; under setting [2], 1000 to 3000 nM.

Turning to `CCN1C(=O)[C@@H](NC(=O)c2cccc(C(F)(F)F)c2)[C@H](c2cccc(NC(=O)/C=C/CN(C)C)c2F)c2cnn(-c3ccccc3)c21` (racemic) [Compound I-56], the IC50 reads like this: under setting [1], no more than 200 nM; under setting [2], 200 to 1000 nM.

Consider `C=C(C(=O)N(C)Cc1cccc([C@@H]2c3cnn(-c4ccccc4)c3N(CC)C(=O)[C@H]2NC(=O)c2ccn(C3CC3)n2)c1)C(C)N1CC2CC(C1)O2` (stereo partly drawn) [Compound I-286], for which the half-inhibitory concentration (IC50) runs as follows: under setting [1], no more than 200 nM; under setting [2], 1000 to 3000 nM.

On to `CCN1C(=O)[C@@H](NC(=O)c2cccc(C(F)(F)F)c2)[C@@H](c2cncc(NC(=O)/C=C/CN(C)C)c2)c2cnn(-c3ccccc3)c21` [Compound I-329], for which the IC50 runs as follows: under setting [1], 1000 to 3000 nM; under setting [2], 1000 to 3000 nM.

For the compound `C/C=C(\CN1CCN(C2COC2)CC1)C(=O)NCc1cccc([C@@H]2c3cnn(-c4ccccc4)c3N(CC)C(=O)[C@H]2NC(=O)c2ccn(C3CC3)n2)c1` [Compound I-288], the IC50 was no more than 200 nM under setting [1] and 200 to 1000 nM under setting [2].

On to `C=C(CC(=O)NCc1cccc([C@@H]2c3cnn(-c4ccccc4)c3N(CC)C(=O)[C@H]2NC(=O)c2cccc(C(F)(F)F)c2)c1)C(=O)OC` [Compound I-57], for which the IC50 was in the range of 1000 to 3000 nM under setting [1] and 1000 to 3000 nM under setting [2].

Consider `CCN1C(=O)[C@H](NC(=O)c2cccc(C(F)(F)F)c2)[C@@H](c2cccc(CNC(=O)C3=CCN(C)C3)c2)c2c(C)nn(-c3ccccc3)c21` [Compound I-362, N-(3-((4S,5R)-7-ethyl-3-methyl-6-oxo-1-phenyl-5-(3-(trifluoromethyl)benzamido)-4,5,6,7-tetrahydro-1H-pyrazolo[3,4-b]pyridin-4-yl)benzyl)-1-methyl-2,5-dihydro-1H-pyrrole-3-carboxamide], for which the 50% inhibitory concentration (IC50) is, setting by setting: under setting [1], 1000 to 3000 nM; under setting [2], 1000 to 3000 nM.

Turning to `C=C(C(=O)NCc1cccc([C@@H]2c3cnn(-c4ccccc4)c3N(CC)C(=O)[C@H]2NC(=O)c2ccn(C3CC3)n2)c1)C(C)N(C)C1COC1` (stereo partly drawn) [Compound I-327], the IC50 reads like this: under setting [1], no more than 200 nM; under setting [3], no more than 200 nM.

As for `CCN1C(=O)[C@H](NC(=O)c2cccc(C(F)(F)F)c2)[C@@H](c2ccccc2NC(=O)C23CC2C3)c2cnn(-c3ccccc3)c21` (mixture of isomers) [Compound I-45, {N}-[2-[˜{rac}-(4˜{S},5˜{R})-7-ethyl-6-oxo-1-phenyl-5-[[3-(trifluoromethyl)benzoyl]amino]-4,5-dihydropyrazolo[3,4-b]pyridin-4-yl]phenyl]bicyclo[1.1.0]butane-1-carboxamide], the IC50 was in the range of 1000 to 3000 nM under setting [1] and 1000 to 3000 nM under setting [2].

Take `C/C=C(\CN1CCC1)C(=O)NCc1cccc([C@@H]2c3cnn(-c4ccccc4)c3N(CC)C(=O)[C@H]2NC(=O)c2ccn(C3CC3)n2)c1` [Compound I-309]: the concentration for half-maximal inhibition (IC50) under setting [1] is no more than 200 nM and the IC50 under setting [2] was no more than 200 nM.

As for `CCN1C(=O)[C@@H](NC(=O)c2cccc(C(F)(F)F)c2)[C@H](c2cccc(CNC/C=C/C(=O)OC(C)(C)C)c2)c2cnn(-c3ccccc3)c21` [Compound I-306, tert-butyl (E)-4-((3-((4R,5S)-7-ethyl-6-oxo-1-phenyl-5-(3-(trifluoromethyl)benzamido)-4,5,6,7-tetrahydro-1H-pyrazolo[3,4-b]pyridin-4-yl)benzyl)amino)but-2-enoate], the IC50 by setting is: under setting [1], 200 to 1000 nM; under setting [2], 1000 to 3000 nM.

Regarding `C=C(CN1CCOCC1)C(=O)NCc1cccc([C@@H]2c3cnn(-c4ccccc4)c3N(CC)C(=O)[C@H]2NC(=O)c2ccn(CC(F)(F)F)n2)c1` [Compound I-297], the IC50 under setting [1] is no more than 200 nM and the IC50 under setting [2] was in the range of 200 to 1000 nM.

For the compound `CCN1C(=O)[C@@H](NC(=O)c2cccc(C(F)(F)F)c2)[C@H](c2ccccc2CNC(=O)/C=C/C(=O)OC)c2cnn(-c3ccccc3)c21` (racemic) [Compound I-67], the IC50 by setting is: under setting [1], 1000 to 3000 nM; under setting [2], 1000 to 3000 nM.

With `CCN1C(=O)[C@@H](NC(=O)c2cccc(C(F)(F)F)c2)[C@H](c2ccccc2CNC(=O)C2=CCC2)c2cnn(-c3ccccc3)c21` (racemic) [Compound I-101], the 50% inhibitory concentration (IC50) under setting [1] was in the range of 1000 to 3000 nM and the IC50 under setting [2] fell in the range of 1000 to 3000 nM.

In the case of `CCN1C(=O)[C@@H](NC(=O)c2cccc(C(F)(F)F)c2)[C@H](c2cccc(CNC(=O)C3=CCN(C)C3)n2)c2cnn(-c3ccccc3)c21` [Compound I-348], the IC50 is, setting by setting: under setting [1], 1000 to 3000 nM; under setting [2], 1000 to 3000 nM.

In the case of `C/C=C(\CN1CCN(C2COC2)CC1)C(=O)N(C)c1cccc([C@@H]2c3cnn(-c4ccccc4)c3N(CC)C(=O)[C@H]2NC(=O)c2csc(C(F)(F)F)n2)c1` [Compound I-301, N-((4R,5S)-7-ethyl-4-(3-((E)-N-methyl-2-((4-(oxetan-3-yl)piperazin-1-yl)methyl)but-2-enamido)phenyl)-6-oxo-1-phenyl-4,5,6,7-tetrahydro-1H-pyrazolo[3,4-b]pyridin-5-yl)-2-(trifluoromethyl)thiazole-4-carboxamide], the IC50 under setting [1] fell in the range of 200 to 1000 nM and the IC50 under setting [2] fell in the range of 1000 to 3000 nM.

As to `C=C(CN1CCC1)C(=O)NCc1cccc([C@H]2c3cnn(-c4ccccc4)c3N(CC)C(=O)[C@@H]2NC(=O)c2cccc(C(F)(F)F)c2)c1` [Compound I-59], the concentration for half-maximal inhibition (IC50) was no more than 200 nM under setting [1] and 1000 to 3000 nM under setting [2].

Turning to `CCN1C(=O)[C@@H](NC(=O)c2cccc(C(F)(F)F)c2)[C@H](c2cncc(NC(=O)C3=CCC3)c2)c2cnn(-c3ccccc3)c21` (racemic) [Compound I-36], the IC50 lay within 1000 to 3000 nM under setting [1] and 1000 to 3000 nM under setting [3].

Consider `C=C(C(=O)NCc1cccc([C@@H]2c3cnn(-c4ccccc4)c3N(CC)C(=O)[C@H]2NC(=O)c2csc(C(F)(F)F)n2)c1)C(C(C)C)N(C)C1COC1` (stereo partly drawn) [Compound I-352], for which the IC50 reads like this: under setting [1], no more than 200 nM; under setting [3], no more than 200 nM.

For the compound `C=C(C(=O)NCc1cccc([C@@H]2c3cnn(-c4ccccc4)c3N(CC)C(=O)[C@H]2NC(=O)c2nccc(C(F)(F)F)n2)c1)C(C)N1CCC12COC2` (stereo partly drawn) [Compound I-256], the 50% inhibitory concentration (IC50) under setting [1] is no more than 200 nM and the IC50 under setting [2] lay in the range of 200 to 1000 nM.

`C=C(CN1CCOCC1)C(=O)NCc1ccccc1[C@@H]1c2cnn(-c3ccccc3)c2N(CC)C(=O)[C@H]1NC(=O)c1cccc(C(F)(F)F)c1` (racemic) [Compound I-153]: the IC50 is no more than 200 nM under setting [1] and no more than 200 nM under setting [3].

A word on the IC50: it is the concentration needed to halve the response being measured.
